According to US20250326744A1, “PIPERAZINE DERIVATIVE OR SALT THEREOF, AND PHARMACEUTICAL COMPOSITION” (priority 2022, published 2025):
Counter-ions that a name gives are not always drawn.

Experiments:
[1] = tested on: mexB (PA) strain; assay: Combinational effect with antibacterial agent against Pseudomonas aeruginosa (Test Examples 2 and 4): mexB (PA) strain with LVFX, TC or AZT at 1/4 MIC, EC99; format: cell-based; conditions: for EC99, combinational effect with AZT, mexB (PA) / EC99, combinational effect with LVFX, mexB (PA) / EC99, combinational effect with TC, mexB (PA): mexB (PA) strain, Test Example 4
How it was run: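 EC99 denotes the minimum test-compound concentration (range 0–800 μM) that suppresses ≥99% of growth, measured by OD595, when combined with ¼ MIC levofloxacin (LVFX), tetracycline or aztreonam. The efflux-pump mutant mexB (PA), expressing mainly MexAB-OprM, was inoculated at 10^4–5 CFU/well in CAMHB for 16–20 h.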

[2] = tested on: S-3769 strain; assay: Combinational effect with antibacterial agent against Pseudomonas aeruginosa (Test Examples 2 and 4): S-3769 strain with AMK or GM at 1/4 MIC, EC99; format: cell-based; conditions: for EC99, combinational effect with AMK, S-3769 strain / EC99, combinational effect with GM, S-3769 strain: Test Example 4
How it was run: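 EC99, the lowest test-compound concentration inhibiting growth by ≥99% (OD595), was measured with aminoglycoside AMK or GM held at ¼ MIC. Strain S-3769, a MexY-overexpressing clinical isolate, was cultured in CAMHB at 10^4 to 5 CFU/well for 16–20 h; compound range 0–800 μM.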

Row | Compound | EC99, combinational effect with AZT, mexB (PA) ([1]; combined with AZT at 1/4 MIC) | EC99, combinational effect with LVFX, mexB (PA) ([1]; combined with LVFX at 1/4 MIC) | EC99, combinational effect with TC, mexB (PA) ([1]; combined with TC at 1/4 MIC) | EC99, combinational effect with AMK, S-3769 strain ([2]; combined with AMK at 1/4 MIC) | EC99, combinational effect with GM, S-3769 strain ([2]; combined with GM at 1/4 MIC) | EC99, mexB (PA), AZT ([1]; Table 52, Test Example 2, combined with AZT at 1/4 MIC, 16 to 20 hours culture, OD595) | EC99, mexB (PA), LVFX ([1]; Table 52, Test Example 2, combined with LVFX at 1/4 MIC, 16 to 20 hours culture, OD595) | EC99, mexB (PA), TC ([1]; Table 52, Test Example 2, combined with TC at 1/4 MIC, 16 to 20 hours culture, OD595) | EC99, S-3769 strain, AMK ([2]; Table 52, Test Example 2, combined with AMK at 1/4 MIC, 16 to 20 hours culture, OD595) | EC99, S-3769 strain, GM ([2]; Table 52, Test Example 2, combined with GM at 1/4 MIC, 16 to 20 hours culture, OD595)
1 | CCSc1ccc(O)cc1CN1CCN(C(=O)[C@H](N)C2CCN(CCc3cc(Cl)ccc3-c3ccccc3)CC2)CC1 [Example 589, (R)-2-amino-2-(1-(2-(4-chloro-[1,1′-biphenyl]-2-yl)ethyl)piperidin-4-yl)-1-(4-(2-(ethylthio)-5-hydroxybenzyl)piperazin-1-yl)ethan-1-one] | S (EC99≤12.5 μM) | S (EC99≤12.5 μM) | S (EC99≤12.5 μM) | S (EC99≤12.5 μM) | S (EC99≤12.5 μM) | – | – | – | – | –
2 | CCOc1cccc(F)c1CN1CCN(C(=O)[C@H](N)C2CCN(CCc3cc(Cl)ccc3-c3coc4ccccc34)CC2)CC1 [Example 549, Hydrobromide of (R)-2-amino-2-(1-(2-(benzofuran-3-yl)-5-chlorophenethyl)piperidin-4-yl)-1-(4-(2-ethoxy-6-fluorobenzyl)piperazin-1-yl)ethan-1-one] | A (12.5 μM<EC99≤25 μM) | A (12.5 μM<EC99≤25 μM) | A (12.5 μM<EC99≤25 μM) | A (12.5 μM<EC99≤25 μM) | A (12.5 μM<EC99≤25 μM) | – | – | – | – | –
3 | CCSc1cc(F)ccc1CN1CCN(C(=O)[C@H](N)C2CCN(CCc3ncccc3-c3ccccc3)CC2)CC1 [Example 542, Hydrobromide of (R)-2-amino-1-(4-(2-(ethylthio)-4-fluorobenzyl)piperazin-1-yl)-2-(1-(2-(3-phenylpyridin-2-yl)ethyl)piperidin-4-yl)ethan-1-one] | B (25 μM<EC99≤100 μM) | B (25 μM<EC99≤100 μM) | B (25 μM<EC99≤100 μM) | B (25 μM<EC99≤100 μM) | B (25 μM<EC99≤100 μM) | – | – | – | – | –
4 | CCSc1cc(F)ccc1CN1CCN(C(=O)[C@H](N)C2CCN(CCc3cc(Cl)ccc3-c3cc(O)ccc3Cl)CC2)CC1 [Example 619, (R)-2-amino-2-(1-(2-(2′,4-dichloro-5′-hydroxy-[1,1′-biphenyl]-2-yl)ethyl)piperidin-4-yl)-1-(4-(2-(ethylthio)-4-fluorobenzyl)piperazin-1-yl)ethan-1-one] | S (EC99≤12.5 μM) | S (EC99≤12.5 μM) | S (EC99≤12.5 μM) | S (EC99≤12.5 μM) | S (EC99≤12.5 μM) | – | – | – | – | –
5 | N[C@@H](C(=O)N1CCN(Cc2cccc3c2OCO3)CC1)C1CCN(CCc2cc(Cl)ccc2-c2ccccc2)CC1 [Example 36, Hydrobromide of (R)-2-amino-1-(4-(benzo[d][1,3]dioxol-4-ylmethyl)piperazin-1-yl)-2-(1-(2-(4-chloro-[1,1′-biphenyl]-2-yl)ethyl)piperidin-4-yl) ethan-1-one] | – | – | – | – | – | B (25 μM<EC99≤100 μM) | C (100 μM<EC99) | B (25 μM<EC99≤100 μM) | B (25 μM<EC99≤100 μM) | B (25 μM<EC99≤100 μM)
